Measured values reported in patent US12060360B2, “Lysyl oxidase inhibitors” (The Institute of Cancer Research: Royal Cancer Hospital, priority 2017, dated 2024).

Experiments:
LOX = biological target: T1, LOX (Mus musculus, UniProt P28301); experiment: LOX activity in cysts assay (LOX-roGFP2 biosensor, MDCK cysts); assay type: cell-based; details: MDCK cysts; for IC50: roGFP2 ratio at basal surface, read-out: LOX biosensor IC50 (cyst); for inhibition at 10 µM: inhibitor added 30 min prior to imaging, DMSO = 0%, BAPN 1 mM = 100% inhibition, read-out: LOX biosensor inhibition (cyst) @ 10 uM
T1 construct: Full length LOX cDNA was then PCR cloned into pEGFP-N1 (Clonetech), or biosensor vector proGFP2-N1; expressed in transfected cells; host or cells: MDCK cells grown as cysts on Matrigel, G418-selected
T1 sequence (P28301 163-411): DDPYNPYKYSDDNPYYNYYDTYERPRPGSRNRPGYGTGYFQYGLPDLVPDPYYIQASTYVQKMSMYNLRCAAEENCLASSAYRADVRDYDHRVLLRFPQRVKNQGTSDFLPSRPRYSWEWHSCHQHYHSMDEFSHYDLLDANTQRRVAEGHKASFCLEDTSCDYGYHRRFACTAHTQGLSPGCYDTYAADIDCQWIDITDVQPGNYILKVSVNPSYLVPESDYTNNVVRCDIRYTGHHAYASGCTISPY
Experimental: LOX Activity in Cysts Assay (Tang et al, 2017).
All cell lines used in this study were purchased from American Type Culture Collection (ATCC). Mycoplasma contamination was routinely monitored by PCR. Cells used were not found to be Mycoplasma positive. MDCK cell lines were cultured in Dulbecco's Modified Eagle Medium (DMEM) supplemented with 10% fetal bovine serum (FBS) and 1% Penicillin Streptomycin solution (Pen Strep). For GFP constructs transfection in MDCK cells, lipofectamine 3000 was used according to manufactures protocols. Cells were either selected with G418 (Life Technologies) at 5 mg/ml. All cell culture reagents were purchased from Life Technologies.
To produce MDCK cysts, cells were cultured on Matrigel (Corning) with 2% Matrigel supplemented in DMEM with 10% FBS. Cysts were allowed to form for 10 days before subsequent studies.
Mouse LOX cDNA was purchased from OriGene. Full length LOX cDNA was then PCR cloned into pEGFP-N1 (Clonetech), or biosensor vector proGFP2-N1 (Hanson, 2004) using the following primers, […] (forward primer) and […] (reverse primer). For the insertion into pEGFP-N1 or proGFP2-N1, NheI and XhoI restriction sites were added to forward and reverse primers accordingly. Mutant LOX constructs were made using QuickChange II site-directed mutagenesis kit (Agilent Technologies) following manufacture's protocol using LOX-GFP as template. To generate, roGFP2 versions of LOX mutant constructs, LOX mutant cDNA was transferred from pEGFP-N1 to proGFP2-N1 using NheI and XhoI.
All photomicrographs were taken with a Leica TCS SP8 X confocal system. For LOX biosensor imaging, live MDCK cysts were used. The oxidised biosensor was excited using a 405 nm laser, while the reduced biosensor was excited with a 488 nm laser. Emission of the biosensor was recorded at 500 nm˜530 nm range using sequential scans. Ratio images were generated following a published protocol {Kardash, 2011 #376}. Note, while the published protocol generates YFP/CFP ratio images, we used it to generate Oxidised/Reduced (roGFP2 ratio) ratio images. The roGFP2 ratio at the basal surface of MDCK cysts was used to indicate LOX inhibition. LOX inhibitors were added 30 min prior to imaging.
For clarity, readout for DMSO treated cysts represents 0% inhibition (no inhibition) and readout for BAPN at 1 mM is used as 100% inhibition (full inhibition).

[1] = tested on: MMTV-PyMT breast transgenic model primary tumour; experiment: MMTV-PyMT transgenic mouse breast cancer model, primary tumour T/C; assay type: in vivo; details: 200 mg/kg po qd; ratio of average tumour volume treated/vehicle control; p<0.05
Experimental: (§1) All procedures involving animals were approved by the Animal Welfare and Ethical Review Body of the Institute of Cancer Research and Cancer Research UK Manchester Institute in accordance with National Home Office regulations under the Animals (Scientific Procedures) Act 1986 and according to the guidelines of the Committee of the National Cancer Research Institute Tumour size was determined by caliper measurements of tumour length, width and depth and volume was calculated as volume=0.5236×length×width×depth (mm).
(§2) MMTV-PyMT (Guy et al, 1992) (FVB) female mice were randomized by non-statistical methods to LOX inhibitor treatment groups from day 70 post-birth, when animals had no detectable tumour. Mice were treated daily by oral gavage with LOX inhibitor in vehicle, or daily vehicle (5% DMSO/2.5% Tween20 in water) by oral gavage. Tumour size was determined unblinded by caliper measurements of tumour length, width and depth and volume was calculated as 0.5236×length×width×depth (mm). In all experiments, mice were humanely killed and mammary tumours and lungs were collected when the primary tumours reached ethical limits or signs of ill health.
(§3) For therapeutic efficacy assessment, the ratio of average tumour volume between compound treated and vehicle control treated (T/C) is calculated. Reduction in tumour volume in the compound treated group compared to vehicle-treated control group results in T/C<1. The efficacy of LOX inhibitors described in this invention, as measured by T/C in a pancreatic cancer model, a colorectal cancer model and a breast cancer model is shown in Table 2 and is significant (p<0.05) for all the data presented.

[2] = tested on: PDAC TRP53R172H (p53 mut) cells (mouse pancreatic carcinoma); experiment: PDAC allografts, primary tumour volume T/C; assay type: in vivo; details: ratio of average tumour volume treated/vehicle control, p<0.05
Experimental: as §1
PDAC allografts: CD1 nu/nu female mice at 6 weeks of age were inoculated subcutaneously in the right flank with 2×10^6 PDAC TRP53R172H (p53 mut) cells at 100 ul suspension per animal. In some examples, the oral dosing by metal gavage commences one day after cells inoculation, at 0.2 ml/20 g bodyweight per animal once daily for 2-4 weeks, with compound dissolved in 5.25% tween20/saline or 5% DMSO/water. In other examples, groups of 7-8 mice were assigned to treatment following stratified allocation of tumour volumes with a median size of circa 100 mm^3. […] Control animals received a similar dosage of vehicle (5.25% tween20/saline). Tumours and weights are measured twice weekly using calipers. At the end of the study the animals are culled, and samples taken, fixed or snap frozen in liquid nitrogen. Frozen samples kept at −80 degree centigrade until being analysed and the fixed samples stained according to the desired marker.
as §3

[3] = tested on: MDA-MB-231 human breast adenocarcinoma; experiment: MDA-MB-231 xenografts, primary tumour volume T/C; assay type: in vivo; details: 200 mg/kg po qd, ratio of average tumour volume treated/vehicle control, p<0.05
Experimental: as §1
MDA-MB-231 xenografts. Ncr nude female mice at 6 weeks old from Charles River were injected into the third upper nipple mammary fat pad with MDA-MB-231 Luc 4×10^6 in 100 ul PB (50:50 Matrigel). When tumours reach a mean of 80 mm^3 around 10 days post cell inoculation the animals are allocated in 4 groups of 8. LOX inhibitor treatment is then administrated by oral gavage dosing, at 0.2 ml/20 g bodyweight once daily for up to 28 consecutive days. Tumours and weights are measured twice weekly using calipers and the animals can be imaged using non invasive method by bioluminescence using IVIS 200 imaging machine, weekly using 150 mg/kg luciferin administrate intraperitoneal or subcutaneous. At the end of the study the animals are culled, and samples taken, fixed or snap frozen in liquid nitrogen. Frozen samples kept at −80 degree centigrade until being analyzed and the fixed samples stained according to desired marker.
as §3

[4] = tested on: MMTV-PyMT breast transgenic model lung metastases; experiment: MMTV-PyMT transgenic mouse breast cancer model, lung metastases quantification T/C; assay type: in vivo; details: 200 mg/kg po qd, treated/vehicle control, p<0.05
Experimental: as §2
For lung metastases quantification, all mouse tissue samples were fixed in 10% formalin (Sigma) and embedded in paraffin. Samples were sectioned and hematoxylin and eosin (H&E) stained. Samples were imaged with a Leica CN400 slide scanner. Lung metastases were manually selected using Pen tool in ImageScope. Lung metastases number was counted and area was measured using ImageScope. The investigator was blinded to the experimental groups. The ratio of average metastases surface between compound treated and vehicle control treated (TIC) is calculated. The ratio of average metastases numbers between compound treated and vehicle control treated (T/C) is also calculated. Reduction in metastases area and/or in metastatses number in the compound treated group compared to vehicle-treated control group results in T/C<1. The antimetastatic efficacy of LOX inhibitors described in this invention, as measured by T/C in a model of breast cancer metastasising to lungs is shown in Table 2 and is significant (p<0.05) for all the data presented.

| SMILES | IC50 (LOX) | T/C MMT-PyMT breast transgenic model - primary tumour [1] | T/C PDAC R172H (p53 mut) (mouse pancreatic carcinoma) - primary tumour ([2]; 200 mg/kg po qd) | inhibition at 10 µM (LOX) | response vs control in vivo at 200 mg/kg [3] | T/C MMT-PyMT breast transgenic model - metastases b) Area ([4]; lung metastases area) | T/C MMT-PyMT breast transgenic model - metastases a) Count ([4]; lung metastases number) | T/C PDAC R172H (p53 mut) (mouse pancreatic carcinoma) - primary tumour ([2]; 100 mg/kg bid) |
| --- | --- | --- | --- | --- | --- | --- | --- | --- |
| CCOc1ccc(N2C[C@H]3CN(C(=O)NCCO)C[C@@H]2C(C)(C)C3)cc1 [Example 12, (1S,5S)-N-(2-hydroxyethyl)-6-(4-ethoxyphenyl)-9,9-dimethyl-3,6-diazabicyclo[3.2.2]nonane-3-carboxamide] | 890 nM | 0.26 | 0.47 |  |  |  |  |  |
| CC1(C)C[C@@H]2CN(C(=O)NC3CCOCC3)C[C@H]1N(c1ccc(N3CCS(=O)(=O)CC3)cc1)C2 [Example 7, (1S,5S)-6-(4-(1,1-dioxidothiomorpholino)phenyl)-9,9-dimethyl-N-(tetrahydro-2H-pyran-4-yl)-3,6-diazabicyclo[3.2.2]nonane-3-carboxamide] | 540 nM | 0.25 |  | 88% | 34% |  |  |  |
| CC1(C)C[C@@H]2CN(C(=O)CCC#N)C[C@H]1N(c1ccc(N3CCS(=O)(=O)CC3)cc1)C2 [Example 49, 4-((1 S,5S)-6-(4-(1,1-Dioxidothiomorpholino)phenyl)-9,9-dimethyl-3,6-diazabicyclo[3.2.2]nonan-3-yl)-4-oxobutanenitrile] |  |  |  | 100% | 62% |  |  |  |
| CC1(C)C[C@@H]2CN(CCCC#N)C[C@H]1N(c1ccc(N3CCS(=O)(=O)CC3)cc1)C2 [Example 39, 4-((1R,5S)-6-(4-(1,1-dioxidothiomorpholino)phenyl)-9,9-dimethyl-3,6-diazabicyclo[3.2.2]nonan-3-yl)butanenitrile] | 3180 nM |  |  | 75% | 48% |  |  |  |
| CCOc1ccc(N2C[C@H]3CN(C(=O)NCCc4c[nH]cn4)C[C@@H]2C(C)(C)C3)cc1 [Example 26, (1S,5S)-N-(2-(1H-imidazol-4-yl)ethyl)-6-(4-ethoxyphenyl)-9,9-dimethyl-3,6-diazabicyclo[3.2.2]nonane-3-carboxamide] | 340 nM |  | 0.46 |  |  |  |  |  |
| CC1(C)C[C@@H]2CN(C(=O)N3CCOCC3)C[C@H]1N(c1ccc(N3CCS(=O)(=O)CC3)cc1)C2 [Example 10, ((1S,5S)-6-(4-(1,1-dioxidothiomorpholino)phenyl)-9,9-dimethyl-3,6-diazabicyclo[3.2.2]nonan-3-yl)(morpholino)methanone] | < 180 nM | 0.11 |  | 100% | 39% | b) 0.0006 | a) 0.02 |  |
| COCCOc1ccc(N2C[C@H]3CN(C(=O)NCCO)C[C@@H]2C(C)(C)C3)cc1 [Example 27, (1S,5S)-N-(2-Hydroxyethyl)-6-(4-(2-methoxyethoxy)phenyl)-9,9-dimethyl-3,6-diazabicyclo[3.2.2]nonane-3-carboxamide] | 990 nM |  |  | 88% | 60% |  |  |  |
| CCOc1ccc(N2C[C@H]3CN(C(=O)NCCS(C)(=O)=O)C[C@@H]2C(C)(C)C3)cc1 [Example 13, (1S,5S)-6-(4-ethoxyphenyl)-9,9-dimethyl-N-(2-(methylsulfonyl)ethyl)-3,6-diazabicyclo[3.2.2]nonane-3-carboxamide] | 1020 nM |  |  |  | 63% |  |  | 0.56 |
| CC1(C)C[C@@H]2CN(C(=O)NCCO)C[C@H]1N(c1ccc(N3CCOCC3)cc1)C2 [Example 4, (1S,5S)—N-(2-hydroxyethyl)-9,9-dimethyl-6-(4-morpholinophenyl)-3,6-diazabicyclo[3.2.2]nonane-3-carboxamide] | 610 nM |  |  | 88% | 35% |  |  |  |
